Measurements reported in patent publication US11697648B2, “Fused pyrimidine pyridinone compounds as JAK inhibitors” (THERAVANCE BIOPHARMA R&D IP, LLC, priority 2019, dated 2023).

The compounds below were run against JAK1 (Homo sapiens (Human), UniProt P23458) (assay: Biochemical JAK1 kinase assay (LanthaScreen)). Details: not given.
Procedure, shortened: (§1)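 GST-JAK + GFP-STAT1 peptide, HEPES pH 7.5/MgCl2/EGTA/Brij-35 buffer; cpd preincubation 1 h RT; ATP start, 1 h RT; stop with 10 mM EDTA + 2 nM Tb-anti-pSTAT1; TR-FRET 520/495. 4-parameter IC50 → pKi (Cheng-Prusoff).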

Chain of JAK1 (P23458 whole entry): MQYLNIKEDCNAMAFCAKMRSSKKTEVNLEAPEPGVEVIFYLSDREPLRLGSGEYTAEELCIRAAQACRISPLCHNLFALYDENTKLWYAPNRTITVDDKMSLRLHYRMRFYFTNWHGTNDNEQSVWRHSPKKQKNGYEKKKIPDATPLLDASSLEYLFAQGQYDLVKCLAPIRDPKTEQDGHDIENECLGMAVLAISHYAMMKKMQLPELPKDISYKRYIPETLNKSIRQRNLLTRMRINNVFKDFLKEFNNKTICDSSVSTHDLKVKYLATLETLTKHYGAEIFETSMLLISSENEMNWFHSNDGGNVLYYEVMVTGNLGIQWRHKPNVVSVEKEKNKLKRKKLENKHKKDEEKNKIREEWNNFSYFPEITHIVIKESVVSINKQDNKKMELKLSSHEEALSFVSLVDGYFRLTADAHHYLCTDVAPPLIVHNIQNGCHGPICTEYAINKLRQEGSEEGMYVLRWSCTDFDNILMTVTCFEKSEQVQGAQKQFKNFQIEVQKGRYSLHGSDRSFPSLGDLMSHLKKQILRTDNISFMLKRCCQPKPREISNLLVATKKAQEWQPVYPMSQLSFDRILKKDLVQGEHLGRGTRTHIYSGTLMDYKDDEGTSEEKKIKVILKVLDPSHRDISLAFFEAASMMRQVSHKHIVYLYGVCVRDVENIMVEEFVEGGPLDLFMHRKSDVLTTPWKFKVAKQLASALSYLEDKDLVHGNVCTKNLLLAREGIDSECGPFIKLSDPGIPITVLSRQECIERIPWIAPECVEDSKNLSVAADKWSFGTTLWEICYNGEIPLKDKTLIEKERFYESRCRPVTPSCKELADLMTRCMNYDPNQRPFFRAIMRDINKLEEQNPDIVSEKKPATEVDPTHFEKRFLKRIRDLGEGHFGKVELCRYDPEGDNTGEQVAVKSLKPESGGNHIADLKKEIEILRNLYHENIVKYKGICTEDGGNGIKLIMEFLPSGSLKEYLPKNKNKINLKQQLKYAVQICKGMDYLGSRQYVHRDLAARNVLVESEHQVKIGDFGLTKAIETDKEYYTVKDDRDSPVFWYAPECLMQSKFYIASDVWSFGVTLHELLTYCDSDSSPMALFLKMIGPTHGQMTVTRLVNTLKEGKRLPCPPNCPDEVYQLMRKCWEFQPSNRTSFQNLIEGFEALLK

| SMILES | JAK 1 (pKi) |
| --- | --- |
| C=CC(=O)N1CC(CCn2c(=O)ccc3cnc(Nc4ccc(N5CCN(C)C(C)(C)C5)cc4)nc32)C1 [Example 240] | E (E represents a pKi value of 7 or below (Ki of 100 nM or above)) |
| C=CC(=O)N1CC(CCn2c(=O)ccc3cnc(Nc4cnn(CC)c4)nc32)C1 [Example 241] | E (E represents a pKi value of 7 or below (Ki of 100 nM or above)) |
| C=CC(=O)N1CCN(CCn2c(=O)ccc3cnc(Nc4cnn(CC)c4)nc32)[C@@H](CC)C1 [Example 242] | E (E represents a pKi value of 7 or below (Ki of 100 nM or above)) |
| C=CC(=O)N1CCN(CCn2c(=O)ccc3cnc(Nc4cnn(CC)c4)nc32)[C@@H](C)C1 [Example 243] | E (E represents a pKi value of 7 or below (Ki of 100 nM or above)) |
| C=CC(=O)N1CCN(CCn2c(=O)ccc3cnc(Nc4cnn(CCN5CCOCC5)c4)nc32)[C@@H](CC)C1 [Example 244] | E (E represents a pKi value of 7 or below (Ki of 100 nM or above)) |
| C=CC(=O)N1CCN(CCn2c(=O)ccc3cnc(Nc4cnn(CCN5CCOCC5)c4)nc32)[C@@H](C)C1 [Example 245] | E (E represents a pKi value of 7 or below (Ki of 100 nM or above)) |
| C=CC(=O)N1CC(C(C)(C)Cn2c(=O)ccc3cnc(Nc4ccc(N5CCN(C)CC5)cc4)nc32)C1 [Example 246] | E (E represents a pKi value of 7 or below (Ki of 100 nM or above)) |
| C=CC(=O)N1CC(CCn2c(=O)ccc3cnc(Nc4ccc(N5C[C@@H](C)N(C)[C@@H](C)C5)cc4)nc32)C1 [Example 247] | E (E represents a pKi value of 7 or below (Ki of 100 nM or above)) |

The compounds below were run on IL-2 stimulated STAT5 phosphorylation in Tall-1 human T cell line (JAK3) (assay: Cellular JAK3 potency assay: inhibition of IL-2 stimulated pSTAT5 in Tall-1 T cells). Details: IL-2 stimulated pSTAT5 in Tall-1 T cells.
Type: cell-based
Procedure, shortened: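 AlphaLISA SureFire Ultra measures STAT5 Tyr694/699 phosphorylation in lysed Tall-1 human T cells. Cells were exposed to compound for 1 h at 37 °C before a 30 min IL-2 challenge (300 ng/ml final). Values are pIC50 means with standard deviation from signal-versus-concentration curves.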

| SMILES | Tall-1 (pIC50) |
| --- | --- |
| C=CC(=O)N1CC(CCn2c(=O)ccc3cnc(Nc4ccc(N5CCN(C)C(C)(C)C5)cc4)nc32)C1 [Example 240] | A (A represents a pIC50 value≥7.5 (IC50≤32 nM)) |
| C=CC(=O)N1CC(CCn2c(=O)ccc3cnc(Nc4cnn(CC)c4)nc32)C1 [Example 241] | B (B represents a pC50 value between 6.7 (included) and 7.5 (IC50 between 200 nM and 32 nM)) |
| C=CC(=O)N1CCN(CCn2c(=O)ccc3cnc(Nc4cnn(CC)c4)nc32)[C@@H](CC)C1 [Example 242] | B (B represents a pC50 value between 6.7 (included) and 7.5 (IC50 between 200 nM and 32 nM)) |
| C=CC(=O)N1CCN(CCn2c(=O)ccc3cnc(Nc4cnn(CC)c4)nc32)[C@@H](C)C1 [Example 243] | B (B represents a pC50 value between 6.7 (included) and 7.5 (IC50 between 200 nM and 32 nM)) |
| C=CC(=O)N1CCN(CCn2c(=O)ccc3cnc(Nc4cnn(CCN5CCOCC5)c4)nc32)[C@@H](CC)C1 [Example 244] | B (B represents a pC50 value between 6.7 (included) and 7.5 (IC50 between 200 nM and 32 nM)) |
| C=CC(=O)N1CCN(CCn2c(=O)ccc3cnc(Nc4cnn(CCN5CCOCC5)c4)nc32)[C@@H](C)C1 [Example 245] | B (B represents a pC50 value between 6.7 (included) and 7.5 (IC50 between 200 nM and 32 nM)) |
| C=CC(=O)N1CC(C(C)(C)Cn2c(=O)ccc3cnc(Nc4ccc(N5CCN(C)CC5)cc4)nc32)C1 [Example 246] | B (B represents a pC50 value between 6.7 (included) and 7.5 (IC50 between 200 nM and 32 nM)) |
| C=CC(=O)N1CC(CCn2c(=O)ccc3cnc(Nc4ccc(N5C[C@@H](C)N(C)[C@@H](C)C5)cc4)nc32)C1 [Example 247] | A (A represents a pIC50 value≥7.5 (IC50≤32 nM)) |

Each compound was assayed against Tyk2 (Homo sapiens (Human), UniProt P29597) (assay: Biochemical Tyk2 kinase assay (LanthaScreen)). Details: not given.
Chain of Tyk2 (P29597 whole entry): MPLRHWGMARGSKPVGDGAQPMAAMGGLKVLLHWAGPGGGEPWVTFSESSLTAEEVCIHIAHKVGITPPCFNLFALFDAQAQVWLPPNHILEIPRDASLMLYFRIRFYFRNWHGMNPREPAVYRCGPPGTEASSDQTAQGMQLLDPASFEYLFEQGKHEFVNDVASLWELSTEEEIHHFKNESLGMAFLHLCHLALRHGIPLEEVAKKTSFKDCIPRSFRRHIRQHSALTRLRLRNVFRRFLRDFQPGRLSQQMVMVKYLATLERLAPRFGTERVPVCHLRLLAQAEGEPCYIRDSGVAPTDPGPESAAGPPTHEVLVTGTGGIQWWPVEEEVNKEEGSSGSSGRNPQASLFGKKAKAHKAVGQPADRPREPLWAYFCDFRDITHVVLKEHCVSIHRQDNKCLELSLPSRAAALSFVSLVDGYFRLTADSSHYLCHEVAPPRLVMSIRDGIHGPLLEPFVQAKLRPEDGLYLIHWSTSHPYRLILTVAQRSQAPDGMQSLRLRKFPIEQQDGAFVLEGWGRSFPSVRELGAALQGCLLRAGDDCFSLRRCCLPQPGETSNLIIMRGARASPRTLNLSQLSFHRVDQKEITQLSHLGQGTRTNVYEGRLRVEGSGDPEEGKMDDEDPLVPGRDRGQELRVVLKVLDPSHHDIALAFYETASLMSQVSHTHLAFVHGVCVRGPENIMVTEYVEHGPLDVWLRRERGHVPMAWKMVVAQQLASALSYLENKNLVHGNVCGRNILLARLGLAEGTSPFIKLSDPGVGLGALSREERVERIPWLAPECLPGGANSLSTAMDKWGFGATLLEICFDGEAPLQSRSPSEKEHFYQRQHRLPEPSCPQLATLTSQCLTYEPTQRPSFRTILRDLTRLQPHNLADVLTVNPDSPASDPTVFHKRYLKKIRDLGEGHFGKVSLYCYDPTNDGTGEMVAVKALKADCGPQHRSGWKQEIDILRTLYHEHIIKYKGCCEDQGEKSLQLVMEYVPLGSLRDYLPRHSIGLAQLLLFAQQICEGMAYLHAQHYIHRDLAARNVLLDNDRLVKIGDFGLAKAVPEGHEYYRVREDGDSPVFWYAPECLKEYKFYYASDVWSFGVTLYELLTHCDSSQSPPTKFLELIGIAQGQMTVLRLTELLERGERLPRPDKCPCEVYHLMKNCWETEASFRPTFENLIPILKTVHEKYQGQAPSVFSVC
Procedure, shortened: as §1

| SMILES | Tyk 2 (pKi) |
| --- | --- |
| C=CC(=O)N1CC(CCn2c(=O)ccc3cnc(Nc4ccc(N5CCN(C)C(C)(C)C5)cc4)nc32)C1 [Example 240] | E (E represents a pKi value of 7 or below (Ki of 100 nM or above)) |
| C=CC(=O)N1CC(CCn2c(=O)ccc3cnc(Nc4cnn(CC)c4)nc32)C1 [Example 241] | E (E represents a pKi value of 7 or below (Ki of 100 nM or above)) |
| C=CC(=O)N1CCN(CCn2c(=O)ccc3cnc(Nc4cnn(CC)c4)nc32)[C@@H](CC)C1 [Example 242] | E (E represents a pKi value of 7 or below (Ki of 100 nM or above)) |
| C=CC(=O)N1CCN(CCn2c(=O)ccc3cnc(Nc4cnn(CC)c4)nc32)[C@@H](C)C1 [Example 243] | E (E represents a pKi value of 7 or below (Ki of 100 nM or above)) |
| C=CC(=O)N1CCN(CCn2c(=O)ccc3cnc(Nc4cnn(CCN5CCOCC5)c4)nc32)[C@@H](CC)C1 [Example 244] | E (E represents a pKi value of 7 or below (Ki of 100 nM or above)) |
| C=CC(=O)N1CCN(CCn2c(=O)ccc3cnc(Nc4cnn(CCN5CCOCC5)c4)nc32)[C@@H](C)C1 [Example 245] | E (E represents a pKi value of 7 or below (Ki of 100 nM or above)) |
| C=CC(=O)N1CC(C(C)(C)Cn2c(=O)ccc3cnc(Nc4ccc(N5CCN(C)CC5)cc4)nc32)C1 [Example 246] | E (E represents a pKi value of 7 or below (Ki of 100 nM or above)) |
| C=CC(=O)N1CC(CCn2c(=O)ccc3cnc(Nc4ccc(N5C[C@@H](C)N(C)[C@@H](C)C5)cc4)nc32)C1 [Example 247] | E (E represents a pKi value of 7 or below (Ki of 100 nM or above)) |

The compounds below were run against JAK3 (Homo sapiens (Human), UniProt P52333) (assay: Biochemical JAK3 kinase assay (LanthaScreen)). Details: not given.
Chain of JAK3 (P52333 whole entry): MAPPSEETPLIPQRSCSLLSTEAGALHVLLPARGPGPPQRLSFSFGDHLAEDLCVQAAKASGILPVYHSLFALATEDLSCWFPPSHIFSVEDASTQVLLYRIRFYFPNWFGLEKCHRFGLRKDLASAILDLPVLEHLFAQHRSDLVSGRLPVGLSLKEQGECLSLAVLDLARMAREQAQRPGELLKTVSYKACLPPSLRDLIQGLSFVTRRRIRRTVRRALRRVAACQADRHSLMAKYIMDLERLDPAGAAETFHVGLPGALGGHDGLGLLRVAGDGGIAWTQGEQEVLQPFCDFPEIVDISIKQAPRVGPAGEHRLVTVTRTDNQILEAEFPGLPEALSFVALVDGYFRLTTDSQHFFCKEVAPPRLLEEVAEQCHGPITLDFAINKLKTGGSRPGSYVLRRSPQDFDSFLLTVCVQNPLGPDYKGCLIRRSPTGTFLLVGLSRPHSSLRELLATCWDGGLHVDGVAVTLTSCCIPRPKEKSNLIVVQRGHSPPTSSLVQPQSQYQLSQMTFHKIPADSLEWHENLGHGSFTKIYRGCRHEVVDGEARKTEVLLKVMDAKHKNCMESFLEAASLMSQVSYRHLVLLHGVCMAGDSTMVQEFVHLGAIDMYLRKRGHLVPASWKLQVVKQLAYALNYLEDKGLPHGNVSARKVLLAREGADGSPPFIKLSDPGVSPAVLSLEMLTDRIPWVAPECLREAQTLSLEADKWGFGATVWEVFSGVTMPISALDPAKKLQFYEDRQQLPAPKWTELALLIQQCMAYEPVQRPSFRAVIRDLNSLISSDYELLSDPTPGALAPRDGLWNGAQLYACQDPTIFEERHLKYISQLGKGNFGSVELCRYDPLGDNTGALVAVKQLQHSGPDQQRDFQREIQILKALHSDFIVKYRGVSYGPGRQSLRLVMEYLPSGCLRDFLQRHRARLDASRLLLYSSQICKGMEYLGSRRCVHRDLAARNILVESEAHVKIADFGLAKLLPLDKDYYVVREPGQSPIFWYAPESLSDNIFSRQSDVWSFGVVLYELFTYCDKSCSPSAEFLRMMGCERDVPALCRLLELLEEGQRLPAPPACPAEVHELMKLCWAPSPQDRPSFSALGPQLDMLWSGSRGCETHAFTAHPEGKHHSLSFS
Procedure, shortened: as §1

| SMILES | JAK 3 (pKi) |
| --- | --- |
| C=CC(=O)N1CC(CCn2c(=O)ccc3cnc(Nc4ccc(N5CCN(C)C(C)(C)C5)cc4)nc32)C1 [Example 240] | A (A represents a pKi value≥10 (Ki≤0.1 nM)) |
| C=CC(=O)N1CC(CCn2c(=O)ccc3cnc(Nc4cnn(CC)c4)nc32)C1 [Example 241] | B (B represents pKi value between 9 and 10 (Ki between 1 nM and 0.1 nM)) |
| C=CC(=O)N1CCN(CCn2c(=O)ccc3cnc(Nc4cnn(CC)c4)nc32)[C@@H](CC)C1 [Example 242] | B (B represents pKi value between 9 and 10 (Ki between 1 nM and 0.1 nM)) |
| C=CC(=O)N1CCN(CCn2c(=O)ccc3cnc(Nc4cnn(CC)c4)nc32)[C@@H](C)C1 [Example 243] | B (B represents pKi value between 9 and 10 (Ki between 1 nM and 0.1 nM)) |
| C=CC(=O)N1CCN(CCn2c(=O)ccc3cnc(Nc4cnn(CCN5CCOCC5)c4)nc32)[C@@H](CC)C1 [Example 244] | B (B represents pKi value between 9 and 10 (Ki between 1 nM and 0.1 nM)) |
| C=CC(=O)N1CCN(CCn2c(=O)ccc3cnc(Nc4cnn(CCN5CCOCC5)c4)nc32)[C@@H](C)C1 [Example 245] | B (B represents pKi value between 9 and 10 (Ki between 1 nM and 0.1 nM)) |
| C=CC(=O)N1CC(C(C)(C)Cn2c(=O)ccc3cnc(Nc4ccc(N5CCN(C)CC5)cc4)nc32)C1 [Example 246] | B (B represents pKi value between 9 and 10 (Ki between 1 nM and 0.1 nM)) |
| C=CC(=O)N1CC(CCn2c(=O)ccc3cnc(Nc4ccc(N5C[C@@H](C)N(C)[C@@H](C)C5)cc4)nc32)C1 [Example 247] | B (B represents pKi value between 9 and 10 (Ki between 1 nM and 0.1 nM)) |

Same assay, conditions: selectivity, difference of pKi values

| SMILES | JAK3 (pKi)-JAK1 (pKi) |
| --- | --- |
| C=CC(=O)N1CC(CCn2c(=O)ccc3cnc(Nc4ccc(N5CCN(C)C(C)(C)C5)cc4)nc32)C1 [Example 240] | A (A represents a value of 3 or above) |
| C=CC(=O)N1CC(CCn2c(=O)ccc3cnc(Nc4cnn(CC)c4)nc32)C1 [Example 241] | A (A represents a value of 3 or above) |
| C=CC(=O)N1CCN(CCn2c(=O)ccc3cnc(Nc4cnn(CC)c4)nc32)[C@@H](CC)C1 [Example 242] | A (A represents a value of 3 or above) |
| C=CC(=O)N1CCN(CCn2c(=O)ccc3cnc(Nc4cnn(CC)c4)nc32)[C@@H](C)C1 [Example 243] | A (A represents a value of 3 or above) |
| C=CC(=O)N1CCN(CCn2c(=O)ccc3cnc(Nc4cnn(CCN5CCOCC5)c4)nc32)[C@@H](CC)C1 [Example 244] | A (A represents a value of 3 or above) |
| C=CC(=O)N1CCN(CCn2c(=O)ccc3cnc(Nc4cnn(CCN5CCOCC5)c4)nc32)[C@@H](C)C1 [Example 245] | A (A represents a value of 3 or above) |
| C=CC(=O)N1CC(C(C)(C)Cn2c(=O)ccc3cnc(Nc4ccc(N5CCN(C)CC5)cc4)nc32)C1 [Example 246] | A (A represents a value of 3 or above) |
| C=CC(=O)N1CC(CCn2c(=O)ccc3cnc(Nc4ccc(N5C[C@@H](C)N(C)[C@@H](C)C5)cc4)nc32)C1 [Example 247] | A (A represents a value of 3 or above) |

The compounds below were run against JAK2 (Homo sapiens (Human), UniProt O60674) (assay: Biochemical JAK2 kinase assay (LanthaScreen)). Details: not given.
Chain of JAK2 (O60674 whole entry): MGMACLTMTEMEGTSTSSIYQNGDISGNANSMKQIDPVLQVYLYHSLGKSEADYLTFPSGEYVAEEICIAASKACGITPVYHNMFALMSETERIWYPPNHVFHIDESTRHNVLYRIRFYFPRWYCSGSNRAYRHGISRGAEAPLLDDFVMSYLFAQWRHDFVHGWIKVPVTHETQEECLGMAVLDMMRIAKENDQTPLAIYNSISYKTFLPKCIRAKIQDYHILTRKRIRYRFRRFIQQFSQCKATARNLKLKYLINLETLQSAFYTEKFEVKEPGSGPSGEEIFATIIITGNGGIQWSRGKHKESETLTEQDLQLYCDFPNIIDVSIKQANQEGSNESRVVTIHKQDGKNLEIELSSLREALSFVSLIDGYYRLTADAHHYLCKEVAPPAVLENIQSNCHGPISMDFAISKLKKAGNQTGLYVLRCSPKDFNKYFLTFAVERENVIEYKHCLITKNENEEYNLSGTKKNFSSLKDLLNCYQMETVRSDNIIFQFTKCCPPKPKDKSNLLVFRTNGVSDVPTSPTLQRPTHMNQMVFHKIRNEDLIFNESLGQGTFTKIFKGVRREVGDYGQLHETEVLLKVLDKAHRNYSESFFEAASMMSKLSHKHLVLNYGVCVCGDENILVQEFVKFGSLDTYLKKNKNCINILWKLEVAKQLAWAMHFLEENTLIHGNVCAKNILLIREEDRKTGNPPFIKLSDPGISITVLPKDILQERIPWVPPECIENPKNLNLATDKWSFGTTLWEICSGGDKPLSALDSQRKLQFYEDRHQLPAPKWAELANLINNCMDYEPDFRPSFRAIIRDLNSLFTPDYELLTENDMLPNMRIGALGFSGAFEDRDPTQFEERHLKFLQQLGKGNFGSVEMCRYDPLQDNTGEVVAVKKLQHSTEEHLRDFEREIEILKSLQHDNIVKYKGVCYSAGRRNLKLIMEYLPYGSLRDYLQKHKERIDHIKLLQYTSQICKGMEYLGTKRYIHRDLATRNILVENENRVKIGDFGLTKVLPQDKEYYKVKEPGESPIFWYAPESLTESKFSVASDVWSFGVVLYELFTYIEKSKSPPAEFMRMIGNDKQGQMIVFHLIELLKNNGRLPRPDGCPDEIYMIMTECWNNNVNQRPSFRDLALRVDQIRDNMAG
Procedure, shortened: as §1

| SMILES | JAK 2 (pKi) |
| --- | --- |
| C=CC(=O)N1CC(CCn2c(=O)ccc3cnc(Nc4ccc(N5CCN(C)C(C)(C)C5)cc4)nc32)C1 [Example 240] | E (E represents a pKi value of 7 or below (Ki of 100 nM or above)) |
| C=CC(=O)N1CC(CCn2c(=O)ccc3cnc(Nc4cnn(CC)c4)nc32)C1 [Example 241] | E (E represents a pKi value of 7 or below (Ki of 100 nM or above)) |
| C=CC(=O)N1CCN(CCn2c(=O)ccc3cnc(Nc4cnn(CC)c4)nc32)[C@@H](CC)C1 [Example 242] | E (E represents a pKi value of 7 or below (Ki of 100 nM or above)) |
| C=CC(=O)N1CCN(CCn2c(=O)ccc3cnc(Nc4cnn(CC)c4)nc32)[C@@H](C)C1 [Example 243] | E (E represents a pKi value of 7 or below (Ki of 100 nM or above)) |
| C=CC(=O)N1CCN(CCn2c(=O)ccc3cnc(Nc4cnn(CCN5CCOCC5)c4)nc32)[C@@H](CC)C1 [Example 244] | E (E represents a pKi value of 7 or below (Ki of 100 nM or above)) |
| C=CC(=O)N1CCN(CCn2c(=O)ccc3cnc(Nc4cnn(CCN5CCOCC5)c4)nc32)[C@@H](C)C1 [Example 245] | E (E represents a pKi value of 7 or below (Ki of 100 nM or above)) |
| C=CC(=O)N1CC(C(C)(C)Cn2c(=O)ccc3cnc(Nc4ccc(N5CCN(C)CC5)cc4)nc32)C1 [Example 246] | E (E represents a pKi value of 7 or below (Ki of 100 nM or above)) |
| C=CC(=O)N1CC(CCn2c(=O)ccc3cnc(Nc4ccc(N5C[C@@H](C)N(C)[C@@H](C)C5)cc4)nc32)C1 [Example 247] | E (E represents a pKi value of 7 or below (Ki of 100 nM or above)) |
